According to US20240287172A1, “PROTEIN BINDERS TO IRHOM2 EPITOPES” (SCIRHOM GMBH, priority 2019, published 2024):

System: LPS-induced release of endogenous TNFα from human macrophages from healthy donors
Test: ELISA-based TNFα release assay, LPS-induced, human macrophages from healthy donors
Assay type: cell-based
Conditions: Macrophage, LPS 5 ng/ml, 2 hours, recombinant murine antibodies at 10 μg/ml, Batimastat at 10 μM
Experimental: To obtain human macrophages, peripheral blood mononuclear cells (PBMCs) from 4 healthy donors were used. Cells from 5 ml human blood were resuspended in 20 ml of DMEM medium (Corning, USA) supplemented with 10% FCS (Atlanta Biological, USA) and Penicillin/Streptomycin (Corning, USA) (DMEM/FCS) and were then incubated on two 10 cm petri dishes (Thermo Fisher, USA) at 37° C., 5% CO2 for 3h. Non-adherent cells were subsequently removed and 6 ml of DMEM/FCS supplemented with 10 ng/ml human MCSF (Peprotech, USA) (DMEM/FCS/MCSF) was added per plate. Both plates were incubated at 37° C., 5% CO2 for 2 days, then 2 ml of DMEM/FCS/MCSF was added to each plate on day 2 and 4. On day 5, all medium was removed and attached cells were washed once with 5 ml PBS (Corning, USA). 2 ml of Accutase (Promocell, USA) solution was added to each plate and incubated at 37° C. for 15 min. 10 ml of DMEM/FCS was added to each plate and detached cells were collected in a 15 ml Falcon tube. Cells were subsequently pelleted in a tabletop centrifuge (Eppendorf, USA) at 1,500 rpm for 5 min. The medium was removed and the cells were resuspended in 2 ml of DMEM/FCS. 10 μl from this cell suspension was manually counted in a hemocytometer (Thermo Fisher, USA). […]

CNC(=O)[C@H](Cc1ccccc1)NC(=O)[C@H](CC(C)C)[C@H](CSc1cccs1)C(=O)NO [Batimastat]
inhibition at 10 µM: 68.3%
